Source: patent publication US5250518A, “O-methyl derivatives of azithromycin A” (priority 1990, dated 1993)
Values after ≈ are worked out from the molar mass of the structure shown. Where two headings read alike, the source gives them in different places.

Assays:
[1] = tested on: Klebsiella pneumoniae NCTC-10499; assay: Antibacterial in vitro activity, tube dilution method (Table 1); assay type: cell-based; conditions: for MBC: read-out: MBC (Minimal Bactericidal Concentration); for MIC: read-out: MIC (Minimal Inhibitory Concentration)
Protocol: (§1) O-methyl derivatives of azithromycin A of the formulae (Ii)-(Il) and their pharmaceutically acceptable addition salts have a potent antimicrobial activity. The preliminary antibacterial in vitro activity of 6-O-methyl-azithromycin A (Ii) was determined on a series of gram-positiveand gram-negative test bacteria and clinical isolates in comparison with erythromycin A. The assessment was performed by the "tube dilution" method. In the investigation there were used 24-hours cultures in "brain hearth bouillon" of standard strains and freshly isolated strains from a clinical sample.
(§2) Substrate: Brain hearth bouillon
(§3) Incubation: 24 hours, 37° C.
(§4) MIC: Minimal Inhibitory Concentration (μg/mL)
(§5) MBC: Minimal Bactericidal Concentration (μg/mL)

[2] = tested on: Pseudomonas aeruginosa NCTC-10490; assay: as above; assay type: cell-based; conditions: for MBC: read-out: MBC (Minimal Bactericidal Concentration); for MIC: read-out: MIC (Minimal Inhibitory Concentration)
Protocol: as §1, §2, §3, §4, §5

[3] = tested on: Staphilococcus aureus ATCC 6538-P; assay: as above; assay type: cell-based; conditions: for MBC: read-out: MBC (Minimal Bactericidal Concentration); for MIC: read-out: MIC (Minimal Inhibitory Concentration)
Protocol: as §1, §2, §3, §4, §5

[4] = tested on: Streptococcus faecalis ATCC-8043; assay: as above; assay type: cell-based; conditions: Enterococcus faecalis; for MBC: read-out: MBC (Minimal Bactericidal Concentration); for MIC: read-out: MIC (Minimal Inhibitory Concentration)
Protocol: as §1, §2, §3, §4, §5

[5] = tested on: Escherichia coli ATCC 10536; assay: as above; assay type: cell-based; conditions: ATCC10536, Brain hearth bouillon, 24 hours, 37° C.; for MBC: read-out: MBC (Minimal Bactericidal Concentration); for MIC: read-out: MIC (Minimal Inhibitory Concentration)
Protocol: as §1, with “The” for “O-methyl derivatives of azithromycin A of the formulae (Ii)-(Il) and their pharmaceutically acceptable addition salts have a potent antimicrobial activity. The”

Sarcina lutea ATCC-9341 = assay: as above; assay type: cell-based; conditions: Micrococcus luteus, ATCC9341, Brain hearth bouillon, 24 hours, 37° C.; for MBC: read-out: MBC (Minimal Bactericidal Concentration); for MIC: read-out: MIC (Minimal Inhibitory Concentration)
Protocol: as §1, with “The” for “O-methyl derivatives of azithromycin A of the formulae (Ii)-(Il) and their pharmaceutically acceptable addition salts have a potent antimicrobial activity. The”

[6] = tested on: Haemophylus influenzae 4028; assay: Antibacterial in vitro activity against clinical isolates, tube dilution method (Table 2); assay type: cell-based; conditions: clinical isolate, Brain hearth bouillon, 24 hours, 37° C.; for MBC: read-out: MBC (Minimal Bactericidal Concentation); for MIC: read-out: MIC (Minimal Inhibitory Concentration)
Protocol: as §1, §2, §3, §4
(§6) MBC: Minimal Bactericidal Concentation (μg/mL)

[7] = tested on: Staphylococcus aureus 10097; assay: as above; assay type: cell-based; conditions: clinical isolate, Brain hearth bouillon, 24 hours, 37° C.; for MBC: read-out: MBC (Minimal Bactericidal Concentation); for MIC: read-out: MIC (Minimal Inhibitory Concentration)
Protocol: as §1, §2, §3, §4, §6

[8] = tested on: Staphylococcus aureus 10099; assay: as above; assay type: cell-based; conditions: clinical isolate, Brain hearth bouillon, 24 hours, 37° C.; for MBC: read-out: MBC (Minimal Bactericidal Concentation); for MIC: read-out: MIC (Minimal Inhibitory Concentration)
Protocol: as §1, §2, §3, §4, §6

[9] = tested on: Staphylococcus saprophyticus 3947; assay: as above; assay type: cell-based; conditions: clinical isolate, Brain hearth bouillon, 24 hours, 37° C.; for MBC: read-out: MBC (Minimal Bactericidal Concentation); for MIC: read-out: MIC (Minimal Inhibitory Concentration)
Protocol: as §1, §2, §3, §4, §6

[10] = tested on: Streptococcus faecalis 10390; assay: as above; assay type: cell-based; conditions: Enterococcus faecalis, clinical isolate, Brain hearth bouillon, 24 hours, 37° C.; for MBC: read-out: MBC (Minimal Bactericidal Concentation); for MIC: read-out: MIC (Minimal Inhibitory Concentration)
Protocol: as §1, §2, §3, §4, §6

[11] = tested on: Streptococcus pneumoniae 4050; assay: as above; assay type: cell-based; conditions: clinical isolate, Brain hearth bouillon, 24 hours, 37° C.; for MBC: read-out: MBC (Minimal Bactericidal Concentation); for MIC: read-out: MIC (Minimal Inhibitory Concentration)
Protocol: as §1, §2, §3, §4, §6

[12] = acidic medium; cited from earlier work
ATCC 6538P = assay: Antibacterial in vitro activity in comparison with azithromycin (Table 3); assay type: cell-based, Staphilococcus aureus
From the text: (§7) In Table 3 there are represented in vitro tests of 6-O-methyl- (Ii), 6,11-di-O-methyl- (Ij), 11-O-methyl- (Ik) and 6,11,4"-tri-O-methyl-azithromycin A (II) in comparison with azithromycin.

ATCC 10240 = assay: as above; assay type: cell-based; conditions: Brain hearth Bouillon, 24-48 hours, 37° C., inoculum 10^-5 -10^-6 cfu/mL
From the text: as §7

ATCC 8043 = assay: as above; assay type: cell-based; conditions: Staphylococcus faecalis, ATCC8043; Brain hearth Bouillon, 24-48 hours, 37° C., inoculum 10^-5 -10^-6 cfu/mL
From the text: as §7

[13] = tested on: Bacillus cereus NCTC 10320; assay: as above; assay type: cell-based; conditions: NCTC10320, Brain hearth Bouillon, 24-48 hours, 37° C., inoculum 10^-5 -10^-6 cfu/mL
From the text: as §7

[14] = tested on: Bacillus pumilus NCTC 8241; assay: as above; assay type: cell-based; conditions: NCTC8241, Brain hearth Bouillon, 24-48 hours, 37° C., inoculum 10^-5 -10^-6 cfu/mL
From the text: as §7

[15] = tested on: Bacillus subtilis NCTC 8241; assay: as above; assay type: cell-based
From the text: as §7

[16] = tested on: Corynebacterium xerosis NCTC 9755; assay: as above; assay type: cell-based; conditions: NCTC9755, Brain hearth Bouillon, 24-48 hours, 37° C., inoculum 10^-5 -10^-6 cfu/mL
From the text: as §7

[17] = tested on: Escherichia coli ATCC 10536; assay: as above; assay type: cell-based; conditions: ATCC10536, Brain hearth Bouillon, 24-48 hours, 37° C., inoculum 10^-5 -10^-6 cfu/mL
From the text: as §7

[18] = tested on: Pseudomonas aeruginosa NCTC 10490; assay: as above; assay type: cell-based; conditions: NCTC10490, Brain hearth Bouillon, 24-48 hours, 37° C., inoculum 10^-5 -10^-6 cfu/mL
From the text: as §7

Sarcina lutea ATCC 9341 = assay: as above; assay type: cell-based
From the text: as §7

[19] = tested on: Staphylococcus epidermidis ATCC 12228; assay: as above; assay type: cell-based; conditions: ATCC12228, Brain hearth Bouillon, 24-48 hours, 37° C., inoculum 10^-5 -10^-6 cfu/mL
From the text: as §7

[20] = tested on: gram-positive and gram-negative test bacteria and clinical isolates; assay: Preliminary antibacterial in vitro activity, tube dilution method (Tables 1 and 2, summary); assay type: cell-based; conditions: versus erythromycin A
Protocol: as §1

[21] = Biological activity (1 mg contains μg of azithromycin); conditions: per 1 mg of (Ii)
[22] = NCTC10499, Brain hearth bouillon, 24 hours, 37° C.
[23] = NCTC10490, Brain hearth bouillon, 24 hours, 37° C.
[24] = Brain hearth bouillon, 24 hours, 37° C.
[25] = ATCC8043, Brain hearth bouillon, 24 hours, 37° C.

## CC[C@H]1OC(=O)[C@H](C)[C@@H](O[C@H]2C[C@@](C)(OC)[C@@H](O)[C@H](C)O2)[C@H](C)[C@@H](O[C@@H]2O[C@H](C)C[C@H](N(C)C)[C@H]2O)[C@](C)(O)C[C@@H](C)C(=O)[C@H](C)[C@@H](O)[C@]1(C)O [Erythromycin A, reference compound]
[1]; NCTC10499, 24 h
  MBC: > 50 µg/mL
  MIC: > 50 µg/mL
[2]; NCTC10490, 24 h
  MBC: > 50 µg/mL
  MIC: > 50 µg/mL
[3]; 24 h
  MBC: 0.8 µg/mL (≈ 1.09 µM)
  MIC: 0.2 µg/mL (≈ 0.273 µM)
[4]; ATCC8043, 24 h
  MBC: 0.8 µg/mL (≈ 1.09 µM)
  MIC: 0.2 µg/mL (≈ 0.273 µM)
[5]
  MBC: > 50 µg/mL
  MIC: 50 µg/mL (≈ 68.1 µM)
Sarcina lutea ATCC-9341
  MBC: 0.4 µg/mL (≈ 0.545 µM)
  MIC: 0.2 µg/mL (≈ 0.273 µM)
[6]
  MBC: 0.2 µg/mL (≈ 0.273 µM)
  MIC: 0.05 µg/mL (≈ 0.0681 µM)
[7]
  MBC: 0.4 µg/mL (≈ 0.545 µM)
  MIC: 0.1 µg/mL (≈ 0.136 µM)
[8]
  MBC: 0.2 µg/mL (≈ 0.273 µM)
  MIC: 0.1 µg/mL (≈ 0.136 µM)
[9]
  MBC: 0.8 µg/mL (≈ 1.09 µM)
  MIC: 0.4 µg/mL (≈ 0.545 µM)
[10]
  MBC: 3.1 µg/mL (≈ 4.22 µM)
  MIC: 0.8 µg/mL (≈ 1.09 µM)
[11]
  MBC: 0.4 µg/mL (≈ 0.545 µM)
  MIC: 0.1 µg/mL (≈ 0.136 µM)
[12]
  behaviour in acidic medium: easily converted into anhydroerythromycin

## CC[C@H]1OC(=O)[C@H](C)[C@@H](O[C@H]2C[C@@](C)(OC)[C@@H](O)[C@H](C)O2)[C@H](C)[C@@H](O[C@@H]2O[C@H](C)C[C@H](N(C)C)[C@H]2O)[C@](C)(OC)C[C@@H](C)CN(C)[C@H](C)[C@@H](O)[C@]1(C)O [Ii, 6-O-Methyl-azithromycin A]
[1]; [22]
  MBC: 50 µg/mL (≈ 65.5 µM)
  MIC: 12.5 µg/mL (≈ 16.4 µM)
[2]; [23]
  MBC: > 50 µg/mL
  MIC: > 50 µg/mL
[3]; [24]
  MBC: 0.4 µg/mL (≈ 0.524 µM)
  MIC: 0.2 µg/mL (≈ 0.262 µM)
[4]; [25]
  MBC: 0.4 µg/mL (≈ 0.524 µM)
  MIC: 0.2 µg/mL (≈ 0.262 µM)
[5]
  MBC: 3.2 µg/mL (≈ 4.19 µM)
  MIC: 1.6 µg/mL (≈ 2.1 µM)
Sarcina lutea ATCC-9341
  MBC: 0.2 µg/mL (≈ 0.262 µM)
  MIC: 0.1 µg/mL (≈ 0.131 µM)
[6]
  MBC: 0.2 µg/mL (≈ 0.262 µM)
  MIC: 0.05 µg/mL (≈ 0.0655 µM)
[7]
  MBC: 0.4 µg/mL (≈ 0.524 µM)
  MIC: 0.05 µg/mL (≈ 0.0655 µM)
[8]
  MBC: 0.1 µg/mL (≈ 0.131 µM)
  MIC: 0.05 µg/mL (≈ 0.0655 µM)
[9]
  MBC: 0.8 µg/mL (≈ 1.05 µM)
  MIC: 0.4 µg/mL (≈ 0.524 µM)
[10]
  MBC: 3.1 µg/mL (≈ 4.06 µM)
  MIC: 0.8 µg/mL (≈ 1.05 µM)
[11]
  MBC: 0.1 µg/mL (≈ 0.131 µM)
  MIC: 0.025 µg/mL (≈ 0.0328 µM)
ATCC 6538P; Brain hearth Bouillon, 24-48 hours, 37° C., inoculum 10^-5 -10^-6 cfu/mL, read-out: MIC
  MIC: 0.39 µg/mL (≈ 0.511 µM)
ATCC 6538P; printed as Micrococcus flavus ATCC 6538 P, versus azithromycin
  activity with respect to azithromycin (from MIC): four times as active
ATCC 10240
  MIC: 0.79 µg/mL (≈ 1.04 µM)
ATCC 8043
  MIC: 0.05 µg/mL (≈ 0.0655 µM)
[13]
  MIC: 0.78 µg/mL (≈ 1.02 µM)
[14]
  MIC: 0.2 µg/mL (≈ 0.262 µM)
[15]; Bacillus subtilis NCTC 8241, versus azithromycin
  activity with respect to azithromycin (from MIC): twice as active
[15]; Bacillus subtilis, NCTC8241, Brain hearth Bouillon, 24-48 hours, 37° C., inoculum 10^-5 -10^-6 cfu/mL
  MIC: 0.2 µg/mL (≈ 0.262 µM)
[16]
  MIC: 12.5 µg/mL (≈ 16.4 µM)
[17]
  MIC: 3.12 µg/mL (≈ 4.1 µM)
[18]
  MIC: 100 µg/mL (≈ 131 µM)
Sarcina lutea ATCC 9341; Micrococcus luteus, ATCC9341, Brain hearth Bouillon, 24-48 hours, 37° C., inoculum 10^-5 -10^-6 cfu/mL
  MIC: 0.0125 µg/mL (≈ 0.0164 µM)
Sarcina lutea ATCC 9341; Sarcina lutea ATCC 9341, versus azithromycin
  activity with respect to azithromycin (from MIC): twice as active
[19]
  MIC: 0.1 µg/mL (≈ 0.131 µM)
[20]
  activity on the investigated strains in comparison with erythromycin A, in words: somewhat improved activity
[21]
  Biological activity: 1 mg contains azithromycin: 754 μg
